Results reported in patent publication EP4257135A1, “BENZIMIDAZOLE DERIVATIVES FOR PULMONARY ARTERIAL HYPERTENSION” (Justus-Liebig-Universität Gießen, priority 2022, dated 2023).

Tested on: PAH-PCLS
Assay: Ex vivo precision-cut lung slices (PCLS) from PAH lungs, medial wall thickness
Format: cell-based
Conditions: PCLS from human PAH lungs; 200 µM on days 2 and 6, fixed day 10; vessels 20-150 µm; vs DMSO
Source text: Lungengewebeproben wurden von Patienten mit IPAH entnommen. Aus den mit 3% niedrigschmelzender Agarose gefüllten Lungenproben von Patienten mit IPAH wurden mit einem Vibratom (Leica Biosystems) Gewebeschnitte (400 µm dick) angefertigt. Die Lungengewebeschnitte wurden in DMEM-GlutaMAX-Medium mit 10 % fetalem Kälberserum, 1 % Penicillin/Streptomycin und 0,1 % Amphotericin B (Thermo Fisher Scientific) kultiviert, und die Behandlung wurde am zweiten Tag eingeleitet. Die Substanz SGC-CBP30 wurde in einer Konzentration von 200 µM an den Tagen 2 und 6 verabreicht. Am 10. Tag wurde das Gewebe in 4% Paraformaldehyd (Roti-Histofix; Carl Roth) fixiert und in Paraffin eingebettet. Die mediale Wanddicke wurde in allen Gefäßen mit einer Größe von 20-150 µm in den Lungenschnitten gemessen.
Das therapeutische Potenzial der EP300/CREBBP-Hemmung durch die Substanz SGC-CBP30 wurde untersucht. Dazu wurde die Wirksamkeit auf PAH-FBs und PAH-SMCs geprüft, die aus den Lungenarterien von menschlichen PAH-Patienten und aus den Lungenarterien von Ratten mit MCT-PAH (Rattenmodell mit Monocrotalin) isoliert wurden. […] Die Wirkung der EP300-Hemmung auf das vaskuläre Remodelling wurde durch Quantifizierung der prozentualen medialen Wanddicke in den mit der Substanz SGC-CBP30 inkubierten PCLS im Vergleich zu den mit DMSO inkubierten Kontrollen bewertet. […]

COc1ccc(CCc2nc3cc(-c4c(C)noc4C)ccc3n2C[C@H](C)N2CCOCC2)cc1Cl [SGC-CBP30, 2-[2-(3-Chloro-4-methoxyphenyl)ethyl]-5-(3,5-dimethyl-1,2-oxazol-4-yl)-1-[(S)-2-(morpholin-4-yl)propyl]-1H-benzimidazole]
mediale Wanddicke der umgestalteten PAs: signifikante Verringerung
